In patent US7851487B2, “Use of tetrahydropyridines in the treatment of central nervous system disorders” (The Research Foundation of State University of New York, priority 2006, dated 2010):
Structures can show the parent of a compound that is named as a salt.

Legend:
[1] = biological target: T1, dopamine transporter (Rattus norvegicus, UniProt P23977); assay: [125I]RTI-55 displacement at dopamine transport sites, rat striatum membranes; type: binding; settings: DA (IC50, nM), displacement of 10 pM [125I]RTI-55, rat striatum
T1 construct: tissue Pel-Freez, Rogers, AR; host or cells: rat striatum membranes
Method: (§1) For this Example, binding of at biogenic amine transporters was determined using striatum and frontal cortex dissected from frozen Sprague-Dawley rat brains (Pel-Freez, Rogers, AR). Affinities of analogs at dopamine transport sites were determined by displacement of [^125I]RTI-55 binding in membranes from rat striatum, using 0.5 mg (original wet weight) of membranes and 10 pM [^125]RTI-55. Non-specific binding was determined in the presence of 1 μM WF-23 (analog 3a). Affinities of analogs at 5-HT transport sites were determined by displacement of [^3H] paroxetine binding in membranes from rat frontal cortex, using 50 mg (original wet weight) of membranes and 0.4 nM [^3H]paroxetine. Non-specific binding was determined in the presence of 10 μM fluoxetine. Binding of analogs at norepinephrine transport sites was determined by displacement of [^3H]nisoxetine binding in membranes from rat forebrain, using 0.7 nM [^3H]nisoxetine. Non-specific binding was determined in the presence of 1 μM desipramine.
(§2) Potencies were calculated from displacement curves using 7-10 concentrations of unlabeled analogs, as analyzed by non-linear curve fitting. Because binding of tropanes at dopamine transporters is generally regarded as multiphasic,^3 potencies in inhibiting [^125I]RTI-55 binding are reported as IC50 values. For [^3H]paroxetine and [^3H]nisoxetine binding assays, Ki values were calculated using the Cheng-Prusoff equation. All data are mean values±S.E.M. of at least three separate experiments, each of which was conducted in triplicate.
(§3) The binding affinities to dopamine (DA), serotonin (5-HT), and norepinephrine (NE) transporters for the series of compounds (4) are presented in Table 1.

[2] = biological target: T2, 5-HT transporter (Rattus norvegicus, UniProt P31652); assay: [3H]paroxetine displacement at 5-HT transport sites, rat frontal cortex membranes; type: binding
T2 construct: tissue Pel-Freez, Rogers, AR; host or cells: rat frontal cortex membranes
Method: as §1, §2, §3

[3] = biological target: T3, norepinephrine transporter (Rattus norvegicus, UniProt Q9WTR4); assay: [3H]nisoxetine displacement at norepinephrine transport sites, rat forebrain membranes; type: binding; settings: NE (Ki, nM), displacement of 0.7 nM [3H]nisoxetine
T3 construct: tissue Pel-Freez, Rogers, AR; host or cells: rat forebrain membranes
Method: as §1, §2, §3

[4] = system: ckr mouse; assay: Hyperactivity and circling in ckr mice (model validation); type: in vivo; settings: rate of hyperactivity and circling after administration, concentrations relevant to human clinical use
Method: The mouse also presents lateral ventricular enlargement, which may mirror neuropathological observations in shizophrenia. […] We have further validated this model by testing risperidone, clozapine, haloperidol and pimozide in the ckr mouse. The behavioral output was assayed by measuring the rate of hyperactivity and circling after administration.

T3 sequence (Q9WTR4 1-597): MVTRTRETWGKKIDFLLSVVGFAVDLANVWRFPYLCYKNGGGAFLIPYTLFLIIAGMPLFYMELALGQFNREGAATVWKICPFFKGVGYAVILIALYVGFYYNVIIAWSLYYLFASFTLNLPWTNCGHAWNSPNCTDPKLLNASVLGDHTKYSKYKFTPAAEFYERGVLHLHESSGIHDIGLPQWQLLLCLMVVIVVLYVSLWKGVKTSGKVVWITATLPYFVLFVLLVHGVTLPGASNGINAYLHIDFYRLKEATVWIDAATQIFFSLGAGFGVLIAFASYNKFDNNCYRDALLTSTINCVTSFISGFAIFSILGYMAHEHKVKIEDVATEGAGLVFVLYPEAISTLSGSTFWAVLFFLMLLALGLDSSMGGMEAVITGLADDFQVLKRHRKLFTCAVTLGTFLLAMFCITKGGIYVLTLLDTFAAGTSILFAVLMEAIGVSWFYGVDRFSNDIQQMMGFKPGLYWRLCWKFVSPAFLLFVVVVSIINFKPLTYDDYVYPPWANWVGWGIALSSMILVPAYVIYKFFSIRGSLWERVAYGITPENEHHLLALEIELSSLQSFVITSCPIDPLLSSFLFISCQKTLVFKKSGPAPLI
T1 sequence (P23977 whole entry): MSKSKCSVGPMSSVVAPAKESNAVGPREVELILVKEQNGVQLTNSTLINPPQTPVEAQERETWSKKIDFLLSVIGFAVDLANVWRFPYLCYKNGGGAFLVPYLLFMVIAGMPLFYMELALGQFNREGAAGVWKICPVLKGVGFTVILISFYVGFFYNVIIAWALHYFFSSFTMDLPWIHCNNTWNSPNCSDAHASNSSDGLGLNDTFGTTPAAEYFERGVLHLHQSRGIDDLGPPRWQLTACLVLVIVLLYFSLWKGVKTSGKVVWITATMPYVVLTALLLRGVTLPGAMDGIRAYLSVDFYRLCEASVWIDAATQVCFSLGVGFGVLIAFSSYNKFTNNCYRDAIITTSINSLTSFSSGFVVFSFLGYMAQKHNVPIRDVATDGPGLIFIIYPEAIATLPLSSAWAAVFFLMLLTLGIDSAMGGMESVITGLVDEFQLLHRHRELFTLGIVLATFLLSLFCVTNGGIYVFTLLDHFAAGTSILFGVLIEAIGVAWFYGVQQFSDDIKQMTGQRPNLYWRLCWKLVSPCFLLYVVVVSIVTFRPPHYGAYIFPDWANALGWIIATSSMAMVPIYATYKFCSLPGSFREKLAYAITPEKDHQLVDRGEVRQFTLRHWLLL
T2 sequence (P31652 whole entry): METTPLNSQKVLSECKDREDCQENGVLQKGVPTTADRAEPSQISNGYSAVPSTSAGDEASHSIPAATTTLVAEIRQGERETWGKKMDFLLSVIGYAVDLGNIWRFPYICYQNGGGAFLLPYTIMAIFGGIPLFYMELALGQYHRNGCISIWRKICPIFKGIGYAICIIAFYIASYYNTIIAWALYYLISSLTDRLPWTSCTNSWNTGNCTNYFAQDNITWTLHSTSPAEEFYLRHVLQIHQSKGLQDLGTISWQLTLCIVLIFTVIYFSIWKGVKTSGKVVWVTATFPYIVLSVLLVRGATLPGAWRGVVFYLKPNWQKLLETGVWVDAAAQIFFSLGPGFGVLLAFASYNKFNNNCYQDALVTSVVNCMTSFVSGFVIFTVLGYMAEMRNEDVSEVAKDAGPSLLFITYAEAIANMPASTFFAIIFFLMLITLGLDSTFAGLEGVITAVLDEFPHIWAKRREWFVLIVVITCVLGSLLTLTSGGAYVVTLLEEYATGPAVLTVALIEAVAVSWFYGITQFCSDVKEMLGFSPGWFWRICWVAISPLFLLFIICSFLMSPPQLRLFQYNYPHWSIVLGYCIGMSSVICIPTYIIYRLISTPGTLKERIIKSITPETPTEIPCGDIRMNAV

Structure (SMILES)	IC50 [1] [nM]	Ki [2] [nM]	Ki [3] [nM]	hyperactivity in ckr mice [4]
COC(=O)[C@H](c1ccc(Br)cc1)[C@@H]1C=CCCN1 [(2R,2′S)-4b]	5590	–	–	–
COC(=O)C(c1ccc(Cl)cc1)C1C=CCCN1 (racemic) [(±)-4c]	6380	> 10000	1910	–
COC(=O)[C@@H](c1ccc(Br)cc1)[C@H]1C=CCCN1 [(2S,2′R)-4b, (S)-Methyl 2-(4-bromophenyl)-2-((R)-1,2,5,6-tetrahydropyridin-2-yl)acetate hydrochloride]	5340	–	–	–
COC(=O)[C@@H](c1ccc(Cl)cc1)[C@H]1C=CCCN1 [(2S,2′R)-4c]	5370	> 10000	391	–
COC(=O)C(c1ccc(Cl)c(Cl)c1)C1C=CCCN1 [(2S,2′R)-4d]	329	> 10000	193	–
COC(=O)[C@H](c1ccc2ccccc2c1)[C@@H]1C=CCCN1 [(2R,2′S)-4f]	547	608	323	–
COC(=O)[C@@H](c1ccc2ccccc2c1)[C@H]1C=CCCN1 [(2S,2′R)-4f]	864	1960	800	–
COC(=O)[C@H](c1ccc(Cl)cc1)[C@@H]1C=CCCN1 [(2R,2′S)-4c]	5030	> 10000	3310	–
O=C(CCCN1CCC(O)(c2ccc(Cl)cc2)CC1)c1ccc(F)cc1 [haloperidol]	–	–	–	dose-dependent attenuation of hyperactivity
COC(=O)C(c1ccc2ccccc2c1)C1C=CCCN1 (racemic) [(±)-4f]	496	1200	1190	–
COC(=O)C(c1ccc(Cl)c(Cl)c1)C1C=CCCN1 [(2R,2′S)-4d]	216	–	109	–
Cc1nc2n(c(=O)c1CCN1CCC(c3noc4cc(F)ccc34)CC1)CCCC2 [risperidone]	–	–	–	dose-dependent attenuation of hyperactivity
COC(=O)C(c1ccc(Br)cc1)C1C=CCCN1 (racemic) [(±)-4b]	6020	–	–	–
